Reference: ChEMBL document CHEMBL4371069, “Click chemistry for improvement in selectivity of quinazoline-based kinase inhibitors for mutant epidermal growth factor receptors” (Bioorg Med Chem Lett, 2019)
pIC50: −log10 of the molar value.

Assays:
SK-BR-3 = experiment: Antiproliferative activity against HER2-dependant human SKBR3 cells after 72 hrs by EZ-Cytox assay; format: ADME, cell-based; conditions: SK-BR-3, 72 h
[1] = target: Receptor tyrosine-protein kinase erbB-2 (Homo sapiens, UniProt P04626); experiment: Inhibition of human C-terminal His6-tagged ERBB2 (676 to end residues) expressed in baculovirus infected sf21 cells using poly(Glu, Tyr) 4:1 as substrate
Receptor tyrosine-protein kinase erbB-2, sequence (P04626 whole entry): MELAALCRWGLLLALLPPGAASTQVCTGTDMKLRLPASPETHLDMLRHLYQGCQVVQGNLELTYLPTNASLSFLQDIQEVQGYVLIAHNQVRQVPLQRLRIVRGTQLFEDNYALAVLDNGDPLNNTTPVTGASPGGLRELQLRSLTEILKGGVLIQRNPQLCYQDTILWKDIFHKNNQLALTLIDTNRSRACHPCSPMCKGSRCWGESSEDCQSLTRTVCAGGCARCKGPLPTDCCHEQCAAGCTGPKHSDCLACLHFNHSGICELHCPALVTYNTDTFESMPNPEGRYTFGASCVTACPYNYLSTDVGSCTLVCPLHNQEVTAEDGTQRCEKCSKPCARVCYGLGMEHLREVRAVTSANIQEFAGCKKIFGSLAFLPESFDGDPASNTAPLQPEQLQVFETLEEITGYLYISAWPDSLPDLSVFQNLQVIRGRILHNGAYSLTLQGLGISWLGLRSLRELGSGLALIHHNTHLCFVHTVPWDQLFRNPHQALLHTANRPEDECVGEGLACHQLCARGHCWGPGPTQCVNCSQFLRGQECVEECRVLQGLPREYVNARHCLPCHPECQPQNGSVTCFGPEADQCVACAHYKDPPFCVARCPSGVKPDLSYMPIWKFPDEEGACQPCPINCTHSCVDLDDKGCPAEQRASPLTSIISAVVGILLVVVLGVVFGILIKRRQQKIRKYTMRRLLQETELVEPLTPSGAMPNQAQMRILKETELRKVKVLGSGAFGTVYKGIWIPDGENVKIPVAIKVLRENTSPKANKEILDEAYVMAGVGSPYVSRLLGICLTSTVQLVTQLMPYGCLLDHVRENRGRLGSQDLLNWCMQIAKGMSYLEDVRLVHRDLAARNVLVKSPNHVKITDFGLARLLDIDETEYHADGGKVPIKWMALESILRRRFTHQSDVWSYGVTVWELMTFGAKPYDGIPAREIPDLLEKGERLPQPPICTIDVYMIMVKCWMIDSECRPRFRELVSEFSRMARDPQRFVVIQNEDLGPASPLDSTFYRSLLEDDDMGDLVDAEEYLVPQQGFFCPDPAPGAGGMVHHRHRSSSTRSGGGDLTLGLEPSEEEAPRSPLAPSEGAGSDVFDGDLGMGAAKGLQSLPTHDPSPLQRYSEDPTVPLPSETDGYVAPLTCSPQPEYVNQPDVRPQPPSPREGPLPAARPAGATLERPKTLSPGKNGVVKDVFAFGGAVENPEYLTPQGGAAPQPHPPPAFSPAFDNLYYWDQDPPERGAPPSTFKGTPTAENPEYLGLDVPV

HepG2 = experiment: Cytotoxicity against human HepG2 cells after 24 hrs by LDH release assay; format: cell-based; conditions: HepG2, 24 h
[2] = Safety index, ratio of compound IC50 to afatinib IC50 for antiproliferative activity against HER2-dependant human SKBR3 cells; format: cell-based; conditions: SK-BR-3 cells (HER2-dependent), read-out: Ratio IC50
CYP3A4 = CYP3A4 (Homo sapiens, UniProt P08684); experiment: Inhibition of CYP3A4 in human liver microsomes assessed as residual activity at 10 uM using midazolam as substrate preincubated for 5 mins followed by NADPH addition and measured after 15 mins by LC-MS/MS analysis relative to control; format: ADME; conditions: probe midazolam, read-out: Activity
CYP3A4, sequence (P08684 whole entry): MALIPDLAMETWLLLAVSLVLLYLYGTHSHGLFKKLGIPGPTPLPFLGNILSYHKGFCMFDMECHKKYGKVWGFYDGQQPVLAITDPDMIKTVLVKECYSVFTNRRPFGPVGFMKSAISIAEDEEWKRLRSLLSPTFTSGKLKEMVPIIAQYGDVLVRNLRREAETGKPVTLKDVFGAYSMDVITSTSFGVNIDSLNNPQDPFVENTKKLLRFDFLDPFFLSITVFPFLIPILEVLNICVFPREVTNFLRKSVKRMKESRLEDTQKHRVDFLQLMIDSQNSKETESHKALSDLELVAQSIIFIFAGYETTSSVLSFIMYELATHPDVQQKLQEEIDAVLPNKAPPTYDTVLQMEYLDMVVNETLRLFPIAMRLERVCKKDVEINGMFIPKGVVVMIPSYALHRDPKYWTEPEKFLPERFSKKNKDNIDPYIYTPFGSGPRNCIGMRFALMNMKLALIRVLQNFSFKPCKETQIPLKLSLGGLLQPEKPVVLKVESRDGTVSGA

CYP2C19 = CYP2C19 (Homo sapiens, UniProt P33261); experiment: Inhibition of CYP2C19 in human liver microsomes assessed as residual activity at 10 uM using S-mephenytoin as substrate preincubated for 5 mins followed by NADPH addition and measured after 15 mins by LC-MS/MS analysis relative to control; format: ADME; conditions: probe S-mephenytoin, read-out: Activity
NCI-H1975 = experiment: Antiproliferative activity against human NCI-H1975 cells harboring EGFR T790M/L858R double mutant after 72 hrs by EZ-Cytox assay; format: functional, cell-based; conditions: NCI-H1975, 72 h
CYP2C9 = CYP2C9 (Homo sapiens, UniProt P11712); experiment: Inhibition of CYP2C9 in human liver microsomes assessed as residual activity at 10 uM using tolbutamide as substrate preincubated for 5 mins followed by NADPH addition and measured after 15 mins by LC-MS/MS analysis relative to control; format: ADME; conditions: probe tolbutamide, read-out: Activity
CYP2C9, sequence (P11712 whole entry): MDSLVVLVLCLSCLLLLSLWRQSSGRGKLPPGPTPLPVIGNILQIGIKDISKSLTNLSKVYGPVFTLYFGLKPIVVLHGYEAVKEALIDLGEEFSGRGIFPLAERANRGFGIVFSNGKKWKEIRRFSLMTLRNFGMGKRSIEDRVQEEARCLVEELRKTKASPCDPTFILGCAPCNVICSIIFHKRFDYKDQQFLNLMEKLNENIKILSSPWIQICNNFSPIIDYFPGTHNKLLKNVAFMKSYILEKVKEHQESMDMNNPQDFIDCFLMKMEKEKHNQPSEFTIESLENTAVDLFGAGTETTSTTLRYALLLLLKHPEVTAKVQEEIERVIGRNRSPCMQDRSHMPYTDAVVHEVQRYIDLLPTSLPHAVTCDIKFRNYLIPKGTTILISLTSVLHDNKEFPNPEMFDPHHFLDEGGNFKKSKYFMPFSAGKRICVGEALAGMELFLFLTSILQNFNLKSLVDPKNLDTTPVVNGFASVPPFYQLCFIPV

[3] = target: Epidermal growth factor receptor (Homo sapiens, UniProt P00533); format: ADME, cell-based, Sf21
Description: Inhibition of human N-terminal GST-tagged EGFR kinase domain (696 to end residues) expressed in baculovirus infected sf21 cells using poly(Glu, Tyr) 4:1 as substrate

CYP2A6 = target: T1, CYP2A6 (Homo sapiens, UniProt P11509); experiment: Inhibition of CYP2A6 in human liver microsomes assessed as residual activity at 10 uM using coumarin as substrate preincubated for 5 mins followed by NADPH addition and measured after 15 mins by LC-MS/MS analysis relative to control; format: ADME; conditions: probe coumarin, read-out: Activity
T1 sequence (P11509 whole entry): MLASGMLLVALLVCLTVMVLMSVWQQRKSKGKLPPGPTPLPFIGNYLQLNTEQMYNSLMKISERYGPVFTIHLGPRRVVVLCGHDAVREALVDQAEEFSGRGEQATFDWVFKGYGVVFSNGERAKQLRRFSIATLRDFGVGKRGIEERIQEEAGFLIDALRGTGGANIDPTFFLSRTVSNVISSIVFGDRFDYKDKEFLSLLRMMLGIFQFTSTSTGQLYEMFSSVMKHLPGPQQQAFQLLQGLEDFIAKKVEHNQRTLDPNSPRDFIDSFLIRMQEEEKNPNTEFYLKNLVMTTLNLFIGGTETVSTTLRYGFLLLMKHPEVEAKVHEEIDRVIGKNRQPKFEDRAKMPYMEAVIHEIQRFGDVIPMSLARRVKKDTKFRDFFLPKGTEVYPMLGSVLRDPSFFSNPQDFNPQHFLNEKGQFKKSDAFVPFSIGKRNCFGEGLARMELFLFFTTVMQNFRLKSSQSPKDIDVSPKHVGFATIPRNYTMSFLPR

[4] = target: Epidermal growth factor receptor (Homo sapiens, UniProt P00533, L858R/T790M); experiment: biochemical; format: cell-based, Sf21
Epidermal growth factor receptor (Homo sapiens, UniProt P00533, L858R/T790M), sequence (P00533 25-1210 T790M/L858R limits assumed): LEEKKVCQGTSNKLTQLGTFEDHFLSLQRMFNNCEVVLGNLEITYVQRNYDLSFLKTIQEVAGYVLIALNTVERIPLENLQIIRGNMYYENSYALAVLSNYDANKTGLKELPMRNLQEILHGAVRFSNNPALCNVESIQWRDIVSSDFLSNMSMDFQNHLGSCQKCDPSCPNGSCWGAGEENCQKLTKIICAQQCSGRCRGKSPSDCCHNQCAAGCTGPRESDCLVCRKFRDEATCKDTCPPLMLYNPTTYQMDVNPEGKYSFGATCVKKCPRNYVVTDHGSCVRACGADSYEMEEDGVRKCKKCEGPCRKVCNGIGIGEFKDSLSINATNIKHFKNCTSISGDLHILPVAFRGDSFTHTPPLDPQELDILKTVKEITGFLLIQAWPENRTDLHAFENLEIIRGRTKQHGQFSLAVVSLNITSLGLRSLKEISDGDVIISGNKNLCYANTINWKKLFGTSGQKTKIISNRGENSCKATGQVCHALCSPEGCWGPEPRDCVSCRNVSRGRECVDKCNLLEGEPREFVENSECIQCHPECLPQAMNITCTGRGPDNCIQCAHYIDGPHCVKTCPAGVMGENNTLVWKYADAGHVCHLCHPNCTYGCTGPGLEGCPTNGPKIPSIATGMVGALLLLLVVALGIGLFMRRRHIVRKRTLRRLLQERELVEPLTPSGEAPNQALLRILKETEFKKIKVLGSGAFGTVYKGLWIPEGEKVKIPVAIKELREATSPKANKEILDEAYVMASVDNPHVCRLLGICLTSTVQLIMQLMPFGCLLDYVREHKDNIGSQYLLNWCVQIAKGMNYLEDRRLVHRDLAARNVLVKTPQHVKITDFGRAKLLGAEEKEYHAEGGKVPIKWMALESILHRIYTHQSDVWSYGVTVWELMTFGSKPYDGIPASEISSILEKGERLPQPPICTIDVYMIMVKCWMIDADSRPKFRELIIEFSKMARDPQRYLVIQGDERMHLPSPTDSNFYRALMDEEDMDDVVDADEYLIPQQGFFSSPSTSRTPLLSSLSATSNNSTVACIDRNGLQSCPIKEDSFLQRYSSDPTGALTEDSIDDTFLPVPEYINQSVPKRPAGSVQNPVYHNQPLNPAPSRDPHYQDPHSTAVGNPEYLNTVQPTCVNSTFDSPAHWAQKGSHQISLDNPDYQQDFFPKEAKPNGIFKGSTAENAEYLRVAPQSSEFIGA

CYP2B6 = target: T2, CYP2B6 (Homo sapiens, UniProt P20813); experiment: Inhibition of CYP2B6 in human liver microsomes assessed as residual activity at 10 uM using bupropion as substrate preincubated for 5 mins followed by NADPH addition and measured after 15 mins by LC-MS/MS analysis relative to control; format: ADME; conditions: probe bupropion, read-out: Activity
T2 sequence (P20813 whole entry): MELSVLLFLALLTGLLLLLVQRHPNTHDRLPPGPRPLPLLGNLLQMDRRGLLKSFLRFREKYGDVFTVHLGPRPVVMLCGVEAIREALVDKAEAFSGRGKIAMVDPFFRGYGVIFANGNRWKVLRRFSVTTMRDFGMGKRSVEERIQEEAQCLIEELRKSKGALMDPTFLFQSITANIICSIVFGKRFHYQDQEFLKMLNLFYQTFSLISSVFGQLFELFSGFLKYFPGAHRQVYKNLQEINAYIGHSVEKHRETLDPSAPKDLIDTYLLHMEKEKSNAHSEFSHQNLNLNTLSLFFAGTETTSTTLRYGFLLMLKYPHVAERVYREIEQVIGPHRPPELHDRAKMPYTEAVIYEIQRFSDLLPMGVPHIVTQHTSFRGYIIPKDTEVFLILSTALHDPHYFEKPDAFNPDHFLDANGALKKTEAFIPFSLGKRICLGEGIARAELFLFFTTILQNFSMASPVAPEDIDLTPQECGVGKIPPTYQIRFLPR

hERG (KCNH2) = hERG (KCNH2) (Homo sapiens, UniProt Q12809); experiment: Inhibition of human ERG expressed in HEK cell at 10 uM at -70 mV holding potential by patch clamp method relative to control; conditions: HEK cells that express hERG
hERG (KCNH2), sequence (Q12809 whole entry): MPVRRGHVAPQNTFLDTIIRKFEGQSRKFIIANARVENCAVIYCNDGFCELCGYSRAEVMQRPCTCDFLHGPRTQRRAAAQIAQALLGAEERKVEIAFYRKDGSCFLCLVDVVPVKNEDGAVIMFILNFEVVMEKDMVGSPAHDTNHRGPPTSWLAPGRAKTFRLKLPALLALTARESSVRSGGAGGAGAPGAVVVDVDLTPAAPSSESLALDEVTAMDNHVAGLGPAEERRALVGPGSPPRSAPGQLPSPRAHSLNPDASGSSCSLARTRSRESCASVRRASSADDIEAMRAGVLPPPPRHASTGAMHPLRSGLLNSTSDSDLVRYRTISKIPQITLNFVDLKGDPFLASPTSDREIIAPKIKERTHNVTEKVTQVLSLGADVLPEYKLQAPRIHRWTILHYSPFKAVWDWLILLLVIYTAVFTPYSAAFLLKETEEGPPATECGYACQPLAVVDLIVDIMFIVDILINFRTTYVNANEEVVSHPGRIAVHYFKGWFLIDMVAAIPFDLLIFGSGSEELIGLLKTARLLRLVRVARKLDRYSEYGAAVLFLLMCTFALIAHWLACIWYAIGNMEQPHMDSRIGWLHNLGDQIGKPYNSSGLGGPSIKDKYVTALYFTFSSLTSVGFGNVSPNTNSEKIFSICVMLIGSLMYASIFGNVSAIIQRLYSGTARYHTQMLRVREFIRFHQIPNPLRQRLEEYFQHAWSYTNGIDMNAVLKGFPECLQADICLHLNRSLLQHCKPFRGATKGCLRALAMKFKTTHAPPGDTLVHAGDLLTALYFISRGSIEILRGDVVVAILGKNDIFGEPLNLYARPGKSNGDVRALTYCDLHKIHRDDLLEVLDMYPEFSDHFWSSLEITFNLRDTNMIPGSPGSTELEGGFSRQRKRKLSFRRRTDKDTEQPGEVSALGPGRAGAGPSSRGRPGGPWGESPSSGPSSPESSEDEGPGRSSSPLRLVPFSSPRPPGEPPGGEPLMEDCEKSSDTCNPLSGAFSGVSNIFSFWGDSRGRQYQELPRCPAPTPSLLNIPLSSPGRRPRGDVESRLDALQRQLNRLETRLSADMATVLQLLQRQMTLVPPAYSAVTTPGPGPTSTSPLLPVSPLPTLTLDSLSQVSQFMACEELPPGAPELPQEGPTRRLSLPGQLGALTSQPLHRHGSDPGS

CYP2E1 = CYP2E1 (Homo sapiens, UniProt P05181); experiment: Inhibition of CYP2E1 in human liver microsomes assessed as residual activity at 10 uM using chlorzoxazone as substrate preincubated for 5 mins followed by NADPH addition and measured after 15 mins by LC-MS/MS analysis relative to control; format: ADME; conditions: probe chlorzoxazone, read-out: Activity
CYP2E1, sequence (P05181 whole entry): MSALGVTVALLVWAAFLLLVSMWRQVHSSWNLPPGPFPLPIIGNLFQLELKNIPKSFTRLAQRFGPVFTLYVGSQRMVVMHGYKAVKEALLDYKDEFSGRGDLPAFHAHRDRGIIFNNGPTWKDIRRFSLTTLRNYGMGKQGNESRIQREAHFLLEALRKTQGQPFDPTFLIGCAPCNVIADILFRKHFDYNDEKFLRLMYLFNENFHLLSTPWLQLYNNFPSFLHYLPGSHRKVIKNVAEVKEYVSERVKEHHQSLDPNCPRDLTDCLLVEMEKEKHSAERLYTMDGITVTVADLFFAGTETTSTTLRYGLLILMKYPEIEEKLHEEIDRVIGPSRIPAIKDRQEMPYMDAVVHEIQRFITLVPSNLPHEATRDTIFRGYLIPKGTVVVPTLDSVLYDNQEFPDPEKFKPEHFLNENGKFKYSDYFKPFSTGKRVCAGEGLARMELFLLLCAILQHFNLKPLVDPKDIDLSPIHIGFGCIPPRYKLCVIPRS

PC-9 = experiment: Antiproliferative activity against human PC9 cells harboring EGFR exon-19 del mutant after 72 hrs by EZ-Cytox assay; format: functional, cell-based; conditions: PC-9, 72 h

What does the source list for C=CC(=O)Nc1cc2c(Nc3ccc(F)c(Cl)c3)ncnc2cc1OCc1cn(Cc2cccc(F)c2)nn1?
pIC50 (SK-BR-3): 6.94; pIC50 [1]: 6.68; pIC50 (HepG2): 4.54; selectivity ratio [2]: > 95; activity at 0.25 h, 10 µM (CYP3A4): 50.1%; activity at 0.25 h, 10 µM (CYP2C19): 53.5%; pIC50 (NCI-H1975): 6.30; activity at 0.25 h, 10 µM (CYP2C9): 11.8%; pIC50 [3]: 7.17; activity at 0.25 h, 10 µM (CYP2A6): 91%; pIC50 [4]: 8.40; activity at 0.25 h, 10 µM (CYP2B6): 67.1%; inhibition at 10 µM (hERG (KCNH2)): 20.7%; activity at 0.25 h, 10 µM (CYP2E1): 59%; pIC50 (PC-9): 9.05

What does the source list for C=CC(=O)Nc1cc2c(Nc3ccc(F)c(Cl)c3)ncnc2cc1OCc1cn(Cc2ccc(Cl)cc2)nn1?
pIC50 (SK-BR-3): 6.58; pIC50 [1]: 6.65; pIC50 (HepG2): 4.22; selectivity ratio [2]: > 95; activity at 0.25 h, 10 µM (CYP3A4): 77.6%; activity at 0.25 h, 10 µM (CYP2C19): 56.4%; pIC50 (NCI-H1975): 6.52; activity at 0.25 h, 10 µM (CYP2C9): 16.3%; pIC50 [3]: 7.21; activity at 0.25 h, 10 µM (CYP2A6): 89%; pIC50 [4]: 7.92; activity at 0.25 h, 10 µM (CYP2B6): 78.8%; inhibition at 10 µM (hERG (KCNH2)): 33.6%; activity at 0.25 h, 10 µM (CYP2E1): 63.4%; pIC50 (PC-9): 9.05

What does the source list for C=CC(=O)Nc1cc2c(Nc3ccc(F)c(Cl)c3)ncnc2cc1OCc1cn(Cc2ccc(F)cc2)nn1?
pIC50 (SK-BR-3): 6.84; pIC50 [1]: 6.67; pIC50 (HepG2): 4.57; selectivity ratio [2]: > 95; activity at 0.25 h, 10 µM (CYP3A4): 55.3%; activity at 0.25 h, 10 µM (CYP2C19): 51.1%; pIC50 (NCI-H1975): 6.34; activity at 0.25 h, 10 µM (CYP2C9): 13.5%; pIC50 [3]: 7.35; activity at 0.25 h, 10 µM (CYP2A6): 82.7%; pIC50 [4]: 8.22; activity at 0.25 h, 10 µM (CYP2B6): 67.9%; inhibition at 10 µM (hERG (KCNH2)): 46.2%; activity at 0.25 h, 10 µM (CYP2E1): 60.9%; pIC50 (PC-9): 9.00
